# Reference: US20150105252A1, “SUBSTITUTED PYRAZOLES AS HERBICIDES” (E I DU PONT DE NEMOURS AND COMPANY, priority 2013, published 2015)
# Experiments:
# foxtail, giant = test: Test A postemergence; format: in vivo, Setaria faberii
# Summary of the method: (§1)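 Both timings tested concurrently in loam/sand soil: preemergence by directed soil spray, postemergence on plants of 2–10 cm at the one- to two-leaf stage. Greenhouse holding period was approximately 10 days before visual injury assessment (0–100, 0 = no effect).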
# morningglory [1] = test: Test A postemergence; format: in vivo, Ipomoea spp.
# Summary of the method: as §1
# ducksalad = test: Test B flood; format: in vivo, Heteranthera limosa; settings: 250 g ai/ha, visual rating on 0 to 100 scale (0 no effect, 100 complete control), 13 to 15 days
# Summary of the method: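 Plants were grown to the 2-leaf stage and pots flooded to 3 cm above soil. Compounds were applied directly into the paddy water, with depth kept for the test. After 13–15 days in greenhouse, response was rated visually against controls on a 0 (no effect) to 100 (complete control) scale.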
# blackgrass = test: Test C preemergence; format: in vivo, Alopecurus myosuroides; settings: preemergence; for Plant response rating, Blackgrass: 125 g ai/ha, scale 0 to 100, 0 = no effect, 100 = complete control
# Summary of the method: (§2)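 Postemergence values come from plants sprayed at the 1- to 4-leaf stage (2–18 cm) in peat moss–vermiculite medium; preemergence values from seeds treated in a loam–sand blend. Both evaluated visually against controls after 13–15 greenhouse days, scale 0–100.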
# crabgrass, large [2] = test: Test C preemergence; format: in vivo, Digitaria sanguinalis; settings: preemergence; for Plant response rating, Crabgrass, Large: 125 g ai/ha, scale 0 to 100, 0 = no effect, 100 = complete control
# Summary of the method: as §2
# johnsongrass = test: Test C preemergence; format: in vivo, Sorghum halepense; settings: preemergence; for Plant response rating, Johnsongrass: 125 g ai/ha, scale 0 to 100, 0 = no effect, 100 = complete control
# Summary of the method: as §2
# morningglory [3] = test: Test C preemergence; format: in vivo, Ipomoea coccinea; settings: preemergence; for Plant response rating, Morningglory: 125 g ai/ha, scale 0 to 100, 0 = no effect, 100 = complete control
# Summary of the method: as §2
# oilseed rape [4] = test: Test C preemergence; format: in vivo, Brassica napus; settings: preemergence; for Plant response rating, Oilseed Rape: 125 g ai/ha, scale 0 to 100, 0 = no effect, 100 = complete control
# Summary of the method: as §2
# crabgrass, large [5] = test: Test C postemergence; format: in vivo, Digitaria sanguinalis; settings: for Plant response rating (scale of 0 to 100 where 0 is no effect and 100 is complete control), Crabgrass, Large: Postemergence, 31 g ai/ha, visually evaluated after 13 to 15 days; for Crabgrass, Large plant response rating / Plant response rating, Crabgrass, Large: postemergence; for Crabgrass, Large plant response rating: 62 g ai/ha, scale 0 to 100
# Summary of the method: as §2
# soybean = test: Test C postemergence; format: in vivo, Glycine max; settings: postemergence; for Plant response rating, Soybean: 250 g ai/ha, scale 0 to 100 (0 no effect, 100 complete control); for Soybean plant response rating: 125 g ai/ha, scale 0 to 100, 0 no effect, 100 complete control
# Summary of the method: as §2
# oilseed rape [6] = test: Test C postemergence; format: in vivo, Brassica napus; settings: postemergence; for Oilseed Rape plant response rating: 62 g ai/ha, scale 0 to 100
# Summary of the method: as §2
# waterhemp = test: Test C postemergence; format: in vivo, Amaranthus rudis; settings: postemergence; for Plant response rating, Waterhemp: 250 g ai/ha, scale 0 to 100 (0 no effect, 100 complete control); for Waterhemp plant response rating: scale 0 to 100
# Summary of the method: as §2
# velvetleaf = test: Test C postemergence; format: in vivo, Abutilon theophrasti; settings: postemergence; for Plant response rating, Velvetleaf: 250 g ai/ha, scale 0 to 100 (0 no effect, 100 complete control); for Velvetleaf plant response rating: scale 0 to 100
# Summary of the method: as §2
# [7] = Postemergence, 500 g ai/ha, 0 to 100 scale (0 no effect, 100 complete control)
# [8] = postemergence, 125 g ai/ha, about 10 days, visual rating on 0 to 100 scale (0 no effect, 100 complete control)
# [9] = 31 g ai/ha, visual rating, scale 0 to 100 (0 no effect, 100 complete control), 13 to 15 days
# [10] = 62 g ai/ha, scale 0 to 100 (0 no effect, 100 complete control), 13 to 15 days
# [11] = 250 g ai/ha, scale 0 to 100, 0 is no effect, 100 is complete control
# [12] = 250 g ai/ha, scale 0 to 100 (0 no effect, 100 complete control)
# [13] = 125 g ai/ha, scale 0 to 100, 0 no effect, 100 complete control
Compound,"Foxtail, Giant plant response rating (foxtail, giant; [7])","Foxtail, Giant plant response rating (foxtail, giant; [8])",Morningglory plant response rating (morningglory [1]; [7]),"Plant response rating, Ducksalad (ducksalad)",Blackgrass plant response rating (blackgrass; [9]),Blackgrass plant response rating (blackgrass; [10]),"Plant response rating, Blackgrass (blackgrass; 13 to 15 days)",Blackgrass plant response rating (blackgrass; [11]),"Crabgrass, Large plant response rating (crabgrass, large [2]; [9])","Crabgrass, Large plant response rating (crabgrass, large [2]; [10])","Plant response rating, Crabgrass, Large (crabgrass, large [2]; 13 to 15 days)","Crabgrass, Large plant response rating (crabgrass, large [2]; [11])",Johnsongrass plant response rating (johnsongrass; [9]),Johnsongrass plant response rating (johnsongrass; [10]),"Plant response rating, Johnsongrass (johnsongrass; 13 to 15 days)",Johnsongrass plant response rating (johnsongrass; [11]),Morningglory plant response rating (morningglory [3]; [9]),Morningglory plant response rating (morningglory [3]; [10]),"Plant response rating, Morningglory (morningglory [3]; 13 to 15 days)",Morningglory plant response rating (morningglory [3]; [11]),further results
CCCc1cc(C(=O)NC(C)C)nn1Cc1ccnc(C(F)(F)F)c1 [Compound 186],90,90,100,80,85,90,90,90,100,100,100,100,75,98,100,100,98,70,100,100,"Morningglory plant response rating (morningglory [1]; Postemergence, 125 g ai/ha, 0 to 100 scale, 0 no effect, 100 complete control): 0; Oilseed Rape plant response rating (oilseed rape [4]; [9]): 100; Oilseed Rape plant response rating (oilseed rape [4]; [10]): 100; Plant response rating, Oilseed Rape (oilseed rape [4]; 13 to 15 days): 100; Oilseed Rape plant response rating (oilseed rape [4]; [11]): 95; Plant response rating (scale of 0 to 100 where 0 is no effect and 100 is complete control), Crabgrass, Large (crabgrass, large [5]): 5; Crabgrass, Large plant response rating (crabgrass, large [5]): 5; Plant response rating, Crabgrass, Large (crabgrass, large [5]; [12]): 80; Plant response rating, Crabgrass, Large (crabgrass, large [5]; [13]): 20; Plant response rating, Soybean (soybean): 95; Soybean plant response rating (soybean): 95; Oilseed Rape plant response rating (oilseed rape [6]): 60; Plant response rating, Oilseed Rape (oilseed rape [6]; [12]): 85; Plant response rating, Oilseed Rape (oilseed rape [6]; [13]): 80; Plant response rating, Waterhemp (waterhemp): 90; Waterhemp plant response rating (waterhemp): 60; Plant response rating, Velvetleaf (velvetleaf): 80; Velvetleaf plant response rating (velvetleaf): 55"
CCOc1cc(C(=O)NOC(C)C)nn1Cc1ccnc(C(F)(F)F)c1 [Compound 153],100,100,100,90,80,90,90,90,85,98,100,100,5,35,75,95,30,80,100,100,"Morningglory plant response rating (morningglory [1]; [8]): 100; Oilseed Rape plant response rating (oilseed rape [4]; [9]): 60; Oilseed Rape plant response rating (oilseed rape [4]; [10]): 95; Plant response rating, Oilseed Rape (oilseed rape [4]; 13 to 15 days): 95; Oilseed Rape plant response rating (oilseed rape [4]; [11]): 95; Plant response rating (scale of 0 to 100 where 0 is no effect and 100 is complete control), Crabgrass, Large (crabgrass, large [5]): 5; Crabgrass, Large plant response rating (crabgrass, large [5]): 10; Plant response rating, Crabgrass, Large (crabgrass, large [5]; [12]): 45; Plant response rating, Crabgrass, Large (crabgrass, large [5]; [13]): 15; Plant response rating, Soybean (soybean): 40; Soybean plant response rating (soybean): 35; Oilseed Rape plant response rating (oilseed rape [6]): 25; Plant response rating, Oilseed Rape (oilseed rape [6]; [12]): 45; Plant response rating, Oilseed Rape (oilseed rape [6]; [13]): 40; Plant response rating, Waterhemp (waterhemp): 65; Waterhemp plant response rating (waterhemp): 40; Plant response rating, Velvetleaf (velvetleaf): 65; Velvetleaf plant response rating (velvetleaf): 30"
CCCNC(=O)c1cc(CCF)n(Cc2ccnc(C(F)(F)F)c2)n1 [Compound 177],100,100,100,95,50,85,90,90,100,100,100,100,10,70,100,98,25,95,100,100,"Morningglory plant response rating (morningglory [1]; [8]): 100; Oilseed Rape plant response rating (oilseed rape [4]; [9]): 70; Oilseed Rape plant response rating (oilseed rape [4]; [10]): 60; Plant response rating, Oilseed Rape (oilseed rape [4]; 13 to 15 days): 90; Oilseed Rape plant response rating (oilseed rape [4]; [11]): 95; Plant response rating (scale of 0 to 100 where 0 is no effect and 100 is complete control), Crabgrass, Large (crabgrass, large [5]): 5; Crabgrass, Large plant response rating (crabgrass, large [5]): 5; Plant response rating, Crabgrass, Large (crabgrass, large [5]; [12]): 10; Plant response rating, Crabgrass, Large (crabgrass, large [5]; [13]): 5; Plant response rating, Soybean (soybean): 95; Soybean plant response rating (soybean): 90; Oilseed Rape plant response rating (oilseed rape [6]): 50; Plant response rating, Oilseed Rape (oilseed rape [6]; [12]): 70; Plant response rating, Oilseed Rape (oilseed rape [6]; [13]): 60; Plant response rating, Waterhemp (waterhemp): 65; Waterhemp plant response rating (waterhemp): 75; Plant response rating, Velvetleaf (velvetleaf): 60; Velvetleaf plant response rating (velvetleaf): 45"
